{
  "source": "ChEMBL document CHEMBL1152156",
  "about": "“A bulge binding agent with novel wedge-shape topology for stimulation of DNA triplet repeat strand slippage synthesis” (Bioorg Med Chem Lett, 2008)",
  "key": {"[1]": {"assay": "Stimulation of DNA triplet repeat slippage synthesis using p33-labeled (ATT)3 and unlabeled (AAT)5 template assessed as number of base pairs"}, "[2]": {"assay": "Binding affinity to ATT-bulge-DNA by surface plasmon resonance based assay"}, "[3]": {"assay": "Stimulation of DNA triplet repeat slippage synthesis using p33-labeled (ATT)3 and unlabeled (AAT)5 template assessed as number of base pairs at 200 uM"}, "[4]": {"assay": "Stimulation of DNA triplet repeat slippage synthesis using p33-labeled (ATT)3 and unlabeled (AAT)5 template assessed as number of base pairs at 50 uM"}, "[5]": {"assay": "Stimulation of DNA triplet repeat slippage synthesis using p33-labeled (ATT)3 and unlabeled (AAT)5 template assessed as number of base pairs at 400 uM"}, "[6]": {"assay": "Binding affinity to hairpin DNA by surface plasmon resonance based assay"}, "[7]": {"assay": "Stimulation of DNA triplet repeat slippage synthesis using p33-labeled (ATT)3 and unlabeled (AAT)5 template assessed as number of base pairs at 100 uM"}, "[8]": {"assay": "Binding affinity to double strand DNA by surface plasmon resonance based assay"}, "[9]": {"assay": "Stimulation of DNA triplet repeat slippage synthesis using p33-labeled (ATT)3 and unlabeled (AAT)5 template at 100 uM in presence of doxorubicin"}},
  "note": "pKd, pKi: −log10 of the molar value. Active and inactive are the calls of the source. No cut-off for these calls is given here.",
  "data": [
    {"smiles": "c1ccc2c(c1)Nc1ccccc1S2", "values": [
      {"measurement": "Activity", "setting": "[1]", "value": "inactive"},
      {"measurement": "Activity", "setting": "[2]", "value": "inactive"}
    ]},
    {"smiles": "N[C@H]1[C@H](O[C@H]2C[C@H]3C(=O)c4cc5ccccc5cc4[C@H]3[C@@]23C(=O)CCc2ccccc23)O[C@H](CO)[C@@H](O)[C@@H]1O", "values": [
      {"measurement": "Activity", "setting": "[1]", "value": "Active"}
    ]},
    {"smiles": "OC[C@H]1O[C@@H](OCCN2c3ccccc3Sc3ccccc32)[C@H](O)[C@@H](O)[C@@H]1O", "values": [
      {"measurement": "Activity", "setting": "[3]", "value": 32},
      {"measurement": "Activity", "setting": "[4]", "value": 18},
      {"measurement": "Activity", "setting": "[5]", "value": 71},
      {"measurement": "pKd", "setting": "[6]", "value": 3.85},
      {"measurement": "pKi", "setting": "[2]", "value": 4.38},
      {"measurement": "Activity", "setting": "[7]", "value": 20},
      {"measurement": "pKd", "setting": "[8]", "value": 3.77},
      {"measurement": "Activity", "setting": "[9]", "value": "inactive"}
    ]}
  ]
}
